Experimental data reported in patent US20120115907A1, “NOVEL COMPOUNDS AS INHIBITORS OF RENIN” (CADILA HEALTHCARE LIMITED, priority 2009, published 2012).

Columns and labels:
[1] = molecular target: T1, human recombinant renin (Homo sapiens, UniProt P00797); test: Inhibition of human recombinant renin (modified Cayman renin inhibitor screening assay, fluorescence); format: biochemical; details: for inhibition at 0.01 µM: read-out: Renin inhibition (percent inhibition of renin activity) at 0.01 μM; for inhibition at 0.1 µM: read-out: Renin inhibition (percent inhibition of renin activity) at 0.1 μM
T1 construct: purchased Cayman 10006270
T1 sequence (P00797 67-406): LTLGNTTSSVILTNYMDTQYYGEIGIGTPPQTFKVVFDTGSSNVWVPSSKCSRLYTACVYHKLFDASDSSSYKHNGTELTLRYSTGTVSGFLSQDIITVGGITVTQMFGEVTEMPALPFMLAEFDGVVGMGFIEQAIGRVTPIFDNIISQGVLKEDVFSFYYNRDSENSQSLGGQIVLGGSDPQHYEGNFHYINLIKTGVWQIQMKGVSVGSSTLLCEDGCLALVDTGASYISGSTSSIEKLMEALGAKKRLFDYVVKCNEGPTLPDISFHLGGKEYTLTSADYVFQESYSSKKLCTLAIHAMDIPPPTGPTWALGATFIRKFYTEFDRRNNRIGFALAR
Description: In-vitro protocol for the Inhibition of human recombinant renin by the compound of invention • Procedure: The enzymatic in vitro assay was performed in 96 well polypropylene plate (Nunc), using a modified Renin inhibitor screening assay protocol (Cayman, cat no: 10006270). The reaction system comprised assay buffer containing 50 mM Tris-HCL, pH=8.0 & 100 mM sodium chloride, human recombinant rennin (1:20 diluted with fixed activity), synthetic renin substrates (Cayman, cat no: 10006906) (14.4 μM) and different concentrations of renin inhibitors in DMSO in a total reaction system of 100 μl. The entire reaction mixture were incubated at 37° C. for 30 mins and the fluorescence was read at excitation wavelengths of 320-360 nm and emission wavelengths of 490-520 nm. Test compounds efficacy was determined by the percent inhibition of renin activity using Aliskiren (Tekturna) as a reference standard.
Following table represents measured IC50 values of the selected compounds for its inhibition of human recombinant renin.

[2] = tested on: Guinea Pigs; test: Anaesthetized Guinea Pig Model (furosemide-treated, blood pressure via carotid artery); format: in vivo; parameters: unit not given beside the values; details: intravenous, change from pretreatment
Description: Anaesthetized Guinea Pig Model
Experimental Procedure: Guinea Pigs were Treated with Furosemide in Drinking Water
(5 mg/kg/day) for four days and intramuscular injection (10 mg/kg) at 18 and 3 hr before experiment. There after they were anaesthetized by using intramuscular injection of xylazine and ketamine (7:70 mg/kg mixture). The left or right jugular vein was exposed and cannulated for intravenous administration of the NCEs. The to left or right carotid artery was exposed and cannulated for recording blood pressure using Biopac system. 0 (vehicle control), 3 and 10 mg of NCEs were administered and change in blood pressure from pretreatment was measured.

[3] = 0.01 μM compound, 37° C., 30 mins, human recombinant renin
[4] = 0.1 μM compound, 37° C., 30 mins, human recombinant renin

Row | IC50 [1] [nM] | inhibition at 0.01 µM [1, 3] [%] | inhibition at 0.1 µM [1, 4] [%] | melting point [°C] | Renin inhibition (percent inhibition of renin activity) at 0.01 μM [1, 3] [%] | Renin inhibition (percent inhibition of renin activity) at 0.1 μM [1, 4] [%] | Structure (SMILES) | Reduction in M.A.B.P ([2]; 3 mg) | Reduction in M.A.B.P ([2]; 10 mg)
1 | 16 | 88 | 100 | 66 to 68 |  |  | O=C(NC1CCNCC1C(=O)N(Cc1cccc(Cl)c1Cl)C1CC1)c1ccc(OCCOc2c(Cl)cccc2Cl)cc1 (stereo not shown) [Example 1, N-cyclopropyl-N-(2,3-dichlorobenzyl)-4-(4-(2-(2,6-dichlorophenoxy)ethoxy)benzamido) piperidine-3-carboxamide] | 18 | 30
2 | 37 | 22 | 91 |  |  |  | COc1ccccc1CN(C(=O)C1CNCC[C@@H]1NC(=O)c1ccc(OCCOc2c(Cl)cc(C)cc2Cl)cc1)C1CC1.Cl (stereo partly drawn) [Example 31, (4S)—N-Cyclopropyl-4-(4-(2-(2,6-dichloro-4-methylphenoxy)ethoxy)benzamido)-N-(2-methoxybenzyl)piperidine-3-carboxamide hydrochloride] | 8 | 28
3 | 21 |  |  |  | 67 | 97 | Cc1cc(Cl)c(OCCOc2ccc(C(=O)N[C@H]3CCNCC3C(=O)N(Cc3cccc(C)c3C)C3CC3)cc2)c(Cl)c1 (stereo partly drawn) [Example 26, (4S)—N-Cyclopropyl-4-(4-(2-(2,6-dichloro-4-methylphenoxy)ethoxy)benzamido)-N-(2,3-dimethylbenzyl)piperidine-3-carboxamide] | 14 | 28
